Measured values published in article PMC9821843, “Powerful Potential of Polyfluoroalkyl-Containing 4-Arylhydrazinylidenepyrazol-3-ones for Pharmaceuticals” (Molecules, 2022).

Molecular target: T1, ratTRPA1 (rTRPA1) (Rattus norvegicus, UniProt Q6RI86)
T1 construct: expressed in transfected cells
Test: TRPA1 calcium imaging in CHO cells (AITC activation)
Assay type: cell-based
Settings: CHO cells expressing TRPA1, Fluo-4, AITC 160 μM
Description: TRPA1 is known to be responsible for inflammatory and neuropathic pain appearance; therefore, it can be considered as a potential biological target for the analgesic action of the studied pyrazolones. Therefore, we studied the effect of pyrazolone 6b, showing the maximum analgesic effect in the hot plate test at 1 h on the activation of the TRPA1 ion channel by allyl isothiocyanate (AITC). The cell line CHO (Chinese hamster ovary cell) stably expressing the TRPA1 channel was used for measurement. Activation by a specific agonist was measured by fluorescence spectroscopy using Fluo-4 dye by changing the level of intracellular calcium.
Testing for receptors ratTRPA1 (rTRPA1) and ratTRPV1 (rTRPV1), stably expressed in CHO cells, was carried out using the calcium imaging method as described in [123, 124]. Fluorescence was performed using NOVOstar (BMG LABTECH, Ortenberg, Germany). The tested substances in 26% DMSO solution or 26% DMSO solution alone (negative control) (5 μL) were added to the cells loaded with the cytoplasmic calcium indicator Fluo-4AM using Fluo-4 Direct™ Calcium Assay Kit (Thermo Fisher Scientific Inc., Waltham, MA, USA) (60 μL) and incubated 5–10 min. Final DMSO concentration was 2%. Changes in cell fluorescence (λex = 485 nm, λem = 520 nm) were monitored at 25 °C before and after the addition of relevant agonist. […]

T1 sequence (Q6RI86 whole entry): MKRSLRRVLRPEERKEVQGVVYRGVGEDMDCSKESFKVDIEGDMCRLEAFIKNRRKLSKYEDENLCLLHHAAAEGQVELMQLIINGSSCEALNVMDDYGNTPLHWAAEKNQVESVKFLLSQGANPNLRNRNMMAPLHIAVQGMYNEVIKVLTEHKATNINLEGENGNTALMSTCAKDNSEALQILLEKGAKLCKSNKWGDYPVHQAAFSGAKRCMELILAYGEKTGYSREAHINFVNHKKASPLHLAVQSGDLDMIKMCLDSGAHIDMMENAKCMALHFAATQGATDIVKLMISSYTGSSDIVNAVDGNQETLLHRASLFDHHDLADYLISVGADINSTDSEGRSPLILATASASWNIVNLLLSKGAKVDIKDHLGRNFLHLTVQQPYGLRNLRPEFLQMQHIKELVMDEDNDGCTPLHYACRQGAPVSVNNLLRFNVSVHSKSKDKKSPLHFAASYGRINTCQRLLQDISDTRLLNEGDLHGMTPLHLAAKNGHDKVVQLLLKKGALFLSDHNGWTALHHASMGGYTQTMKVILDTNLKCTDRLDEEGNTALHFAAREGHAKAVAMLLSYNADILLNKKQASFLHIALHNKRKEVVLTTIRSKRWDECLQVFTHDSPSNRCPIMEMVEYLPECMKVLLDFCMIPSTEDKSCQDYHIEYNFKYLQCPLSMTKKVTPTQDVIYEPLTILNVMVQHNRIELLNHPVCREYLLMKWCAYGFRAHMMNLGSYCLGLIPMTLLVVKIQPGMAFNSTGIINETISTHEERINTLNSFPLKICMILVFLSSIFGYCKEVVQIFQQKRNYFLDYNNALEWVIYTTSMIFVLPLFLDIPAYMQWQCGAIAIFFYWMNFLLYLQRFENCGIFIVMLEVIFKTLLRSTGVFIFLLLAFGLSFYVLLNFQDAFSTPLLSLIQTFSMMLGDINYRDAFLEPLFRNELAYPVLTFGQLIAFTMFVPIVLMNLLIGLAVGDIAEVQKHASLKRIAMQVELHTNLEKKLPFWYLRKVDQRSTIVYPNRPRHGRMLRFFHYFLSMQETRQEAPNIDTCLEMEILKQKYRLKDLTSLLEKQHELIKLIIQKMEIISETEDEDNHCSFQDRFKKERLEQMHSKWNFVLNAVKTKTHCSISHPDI

Q: How did the “effect on AITC-induced TRPA1 channel activation” value turn out when `Cc1ccc(N/N=C2\C(=O)N(c3ccccc3)N=C2C(F)(F)C(F)(F)F)cc1` [6b, (4Z)-4-[2-(4-Methylphenyl)hydrazinylidene]-5-(pentafluoroethyl)-2-phenyl-2,4-dihydro-3H-pyrazol-3-one] was run?
A: no significant effect
